From patent US20160200743A1, “BORON-CONTAINING SMALL MOLECULES AS ANTI-INFLAMMATORY AGENTS” (ANACOR PHARMACEUTICALS, INC., priority 2013, published 2016)

target: Human PDE4 (PDE4B2 truncated) (Homo sapiens, UniProt Q07343); test: Measurement of Phosphodiesterase 4 (PDE4) inhibition, zinc and barium precipitation method with 3H-cAMP; type: biochemical; settings: PDE4B2 truncated catalytic domain, 0.3 pM enzyme, 20 min pre-incubation, 30° C. for 6 minutes
Description: Human PDE4 enzymatic activity was assayed using the zinc and barium precipitation method of Saldou, N. et at (1998: Cell Signal, vol 10, No. 6, pp 427-440). The assay was performed in 96-well v-bottom plates (BrandPlates, Wertheim, Germany). PDE4B2 truncated is the catalytic domain including the UCR2 and a portion of the UCR1 domain of PDE4B2 (23.4 mg/mL) from Proteros Biostructures. Final concentration of enzyme in the assay was 0.3 pM. Stocks of the tested compounds were prepared in 100% DMSO at a concentration of 40 mM. The 105-μL reaction volume consisted of 45 mM Tris-HCl, pH 7.5, 12.5 mM MgSO4, 1.5 μM […] (Sigma, St Louis, Mo.) supplemented with 0.15 μM ^3H-cAMP (Perkin Elmer, Waltham, Mass.). Compounds were pre-incubated with enzyme at room temperature for 20 min prior to initiating the reaction by adding substrate (cAMP supplemented with ^3H-cAMP). After incubation at 30° C. for 6 minutes, the reaction was stopped by the addition of 50 μL fresh made 21.5 mM ZnSO4.7H2O (Alfa Aesar, Ward Hill, Mass.) containing 5 mM AMP as a co-precipitant. Total AMP was precipitated by the addition of 50 μL 17.5 mM Ba(OH)2, prepared fresh daily in autoclaved MilliQ water. 180 uL of well-mixed precipitate was transferred and collected by filtration (Millipore Multiscreen; MSFBN6B50). The plates were washed five times with cold wash solution (1 mM NaOH, 100 mM NaCl) and dried for 30 min to 1 hour at 65±10° C. or overnight at room temperature. The bottoms of plates were sealed with clear tapes (Millipore Co-operation, Billerica, Mass.) and 50±10 μL of scintillation cocktail (Perkin Elmer Waltham, Mass.) was added. The plates were top sealed and radioactivity was measured with scintillation counter.

Chain of Human PDE4 (PDE4B2 truncated) (Q07343 212-659 limits assumed): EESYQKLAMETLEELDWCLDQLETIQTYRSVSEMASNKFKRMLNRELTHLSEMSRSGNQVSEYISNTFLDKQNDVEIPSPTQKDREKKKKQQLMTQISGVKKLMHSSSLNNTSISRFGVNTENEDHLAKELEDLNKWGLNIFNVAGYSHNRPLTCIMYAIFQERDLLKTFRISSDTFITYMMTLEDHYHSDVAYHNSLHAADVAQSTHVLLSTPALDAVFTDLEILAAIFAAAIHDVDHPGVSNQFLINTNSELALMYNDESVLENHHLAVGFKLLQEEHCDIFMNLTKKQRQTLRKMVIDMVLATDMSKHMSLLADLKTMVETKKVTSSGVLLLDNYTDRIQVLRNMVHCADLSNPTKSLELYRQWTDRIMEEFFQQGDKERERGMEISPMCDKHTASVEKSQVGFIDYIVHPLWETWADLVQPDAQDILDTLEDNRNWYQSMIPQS

Structure (SMILES) | IC50 [µM]
N#Cc1ccc(C(=O)c2ccc3c(c2)COB3O)cc1 [A, 4-(1-hydroxy-1,3-dihydrobenzo[c][1,2]oxaborole-5-carbonyl)benzonitrile] | 0.427
N#Cc1ccc([S+]([O-])c2ccc3c(c2)COB3O)cc1 (stereo not drawn) [D, 4-(1-hydroxy-1,3-dihydrobenzo[c][1,2]oxaborol-5-ylsulfinyl)benzonitrile] | 0.047
N#Cc1ccc(C(O)c2ccc3c(c2)COB3O)cc1 (stereo not drawn) [B, 4-(hydroxy(1-hydroxy-1,3-dihydrobenzo[c][1,2]oxaborol-5-yl)methyl)benzonitrile] | 3.09
